Results from patent publication US10138255B2, “Piperazine derivatives as HIV protease inhibitors” (Merck Sharp & Dohme Corp., priority 2014, dated 2018).

These compounds were tested on HIV-1 (H9IIIB strain) (assay: Cell-Based HIV Infection Assay Using a Reporter (MT4-GFP cells)). Details: Human immunodeficiency virus 1, inflection point (IP) of viral growth inhibition; MT4-GFP cells infected with HIV-1 H9IIIB; 50% normal human serum; mean of at least two independent experiments; read-out: Cell Based IP (50% NHS).
How it was run: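 Inflection point from a 4-parameter curve of % viral growth inhibition, normalised to DMSO and triple-drug controls, using the 48 h/24 h ratio of GFP-positive cells (R0). MT4-GFP cells pre-infected 24 h with HIV-1 H9IIIB at low MOI; compounds tested in 50% normal human serum, 0.4% DMSO; mean of ≥2 experiments.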
In the case of `COC(=O)N[C@H](C(=O)Nc1cccc(F)c1CCC1CNC2CCCS(=O)(=O)N1C2)[C@@H](c1ccc(Cl)cc1)C1CCC(F)(F)CC1` (stereo partly drawn) [Example 5, Methyl [(1S,2R)-2-(4-chlorophenyl)-2-(4,4-difluorocyclohexyl)-1-({2-[2-(2,2-dioxido-2-thia-1,7-diazabicyclo[4.3.1]dec-9-yl)ethyl]-3-fluorophenyl}carbamoyl)ethyl]carbamate], the EC50 is reported as 0.0094 µM.
`N[C@H](C(=O)Nc1cccc(F)c1CCC1CNC2CCCS(=O)(=O)N1C2)C(c1ccc(Cl)cc1)c1ccnc(C(F)(F)F)c1` (stereo in doubt) [Example 123, (βR)-4-chloro-N-{2-[2-(2,2-dioxido-2-thia-1,7-diazabicyclo[4.3.1]dec-9-yl)ethyl]-3-fluorophenyl}-β-[2-(trifluoromethyl)pyridin-4-yl]-L-phenylalaninamide] was tested, and the EC50 was 0.0068 µM.
In the case of `C[C@@H]1CC([C@H](c2ccc(F)cc2)[C@H](N)C(=O)Nc2cc(F)ccc2CC[C@H]2CN[C@@H]3CCCS(=O)(=O)N2C3)C[C@H](C)O1` (stereo partly drawn) [Example 188, (βR)-β-[(2S,2R)-2,6-dimethyltetrahydro-2H-pyran-4-yl]-N-(2-{2-[(6R,9S)-2,2-dioxido-2-thia-1,7-diazabicyclo[4.3.1]dec-9-yl]ethyl}-5-fluorophenyl)-4-fluoro-L-phenylalaninamide], the EC50 is reported as 0.025 µM.
In the case of `COC(=O)N[C@H](C(=O)N[C@H]1CCC[C@@H]1CC[C@H]1CN[C@@H]2CCCS(=O)(=O)N1C2)C(c1ccc(F)cc1)c1ccc(F)cc1` [Example 49, methyl [(1S)-1-[bis(4-fluorophenyl)methyl]-2-{[(1S,2R)-2-{2-[(6R,9S)-2,2-dioxido-2-thia-1,7-diazabicyclo[4.3.1]dec-9-yl]ethyl}cyclopentyl]amino}-2-oxoethyl]carbamate], the EC50 is reported as 0.018 µM.
In the case of `N[C@H](C(=O)Nc1cccc(F)c1CCC1CNC2CCCS(=O)(=O)N1C2)[C@@H](c1ccc(F)cc1)c1cccc(C2CC2)c1` (stereo partly drawn) [Example 51, (βS)-3-cyclopropyl-N-{2-[2-(2,2-dioxido-2-thia-1,7-diazabicyclo[4.3.1]dec-9-yl)ethyl]-3-fluorophenyl}-β-(4-fluorophenyl)-L-phenylalaninamide], the EC50 is reported as 0.02 µM.
In the case of `CCO[C@H]1CC[C@H]([C@H](c2ccc(F)cc2)[C@H](NC(=O)OC)C(=O)Nc2cccc(F)c2CC[C@H]2CN[C@@H]3CCCS(=O)(=O)N2C3)CC1` [Example 211, methyl {(1S)-2-[(2-{2-[(6R,9S)-2,2-dioxido-2-thia-1,7-diazabicyclo[4.3.1]dec-9-yl]ethyl}-3-fluorophenyl)amino]-1-[(R)-[(1r,4R)-4-ethoxycyclohexyl](4-fluorophenyl)methyl]-2-oxoethyl}carbamate], the EC50 is reported as 0.0064 µM.
With `COC(=O)N[C@H](C(=O)Nc1cccc(F)c1CC[C@H]1CN[C@@H]2CCCS(=O)(=O)N1C2)[C@]1(c2ccc(F)cc2)CC[C@@H](OC)CC1` [Example 210, methyl {(1S)-2-[(2-{2-[(6R,9S)-2,2-dioxido-2-thia-1,7-diazabicyclo[4.3.1]dec-9-yl]ethyl}-3-fluorophenyl)amino]-1-[trans-1-(4-fluorophenyl)-4-methoxycyclohexyl]-2-oxoethyl}carbamate] the EC50 was 0.016 µM.
`COC(=O)N1CCC(c2ccc(Cl)cc2)([C@H](N)C(=O)Nc2cccc(F)c2CC[C@H]2CN[C@@H]3CCCS(=O)(=O)N2C3)CC1` [Example 14, Methyl 4-{(1S)-1-amino-2-[(2-{2-[(6R,9S)-2,2-dioxido-2-thia-1,7-diazabicyclo[4.3.1]dec-9-yl]ethyl}-3-fluorophenyl)amino]-2-oxoethyl}-4-(4-chlorophenyl)piperidine-1-carboxylate] was tested, and the EC50 was 0.014 µM.
`COC(=O)N[C@H](C(=O)Nc1cccc(F)c1CCC1CNC2CCCS(=O)(=O)N1C2)[C@H](CCC1CCCCO1)c1ccc(Cl)cc1` (stereo partly drawn) [Example 153, methyl [(1S,2R)-2-(4-chlorophenyl)-1-({2-[2-(2,2-dioxido-2-thia-1,7-diazabicyclo[4.3.1]dec-9-yl)ethyl]-3-fluorophenyl}carbamoyl)-4-(tetrahydro-2H-pyran-2-yl)butyl]carbamate] showed an EC50 of 0.0097 µM.
Compound `CO[C@H]1CC[C@H]([C@H](c2ccc(F)cc2)[C@H](N)C(=O)Nc2cccc(F)c2CC[C@H]2CN[C@@H]3CCCS(=O)(=O)N2C3)CC1` [Example 118, (βR)-N-(2-{2-[(6R,9S)-2,2-dioxido-2-thia-1,7-diazabicyclo[4.3.1]dec-9-yl]ethyl}-3-fluorophenyl)-4-fluoro-β-[(1r,4R)-4-methoxycyclohexyl]-L-phenylalaninamide] has an EC50 of 0.0075 µM.
With `N[C@H](C(=O)N[C@H]1CCCC[C@@H]1CC[C@H]1CN[C@@H]2CCCS(=O)(=O)N1C2)[C@H](c1cncc(F)c1)c1ccc(Cl)c(F)c1` [Example 145, (βS)-4-chloro-N-[(1S,2R)-2-{2-[(6R,9S)-2,2-dioxido-2-thia-1,7-diazabicyclo[4.3.1]dec-9-yl]ethyl}cyclohexyl]-3-fluoro-β-(5-fluoropyridin-3-yl)-L-phenylalaninamide] the EC50 was 0.076 µM.
Work on `COC(=O)N[C@H](C(=O)Nc1cccc(F)c1CCC1CNC2CCCS(=O)(=O)N1C2)[C@@H](c1ccc(F)cc1)C12CC(C1)C2` (stereo partly drawn) [Example 87, methyl [(1S,2R)-2-bicyclo[1.1.1]pent-1-yl-1-({2-[2-(2,2-dioxido-2-thia-1,7-diazabicyclo[4.3.1]dec-9-yl)ethyl]-3-fluorophenyl}carbamoyl)-2-(4-fluorophenyl)ethyl]carbamate] yielded an EC50 of 0.13 µM.
Compound `CC1(C)CC([C@H](c2ccc(Cl)cc2)[C@H](NC(=O)CN)C(=O)N[C@H]2CCC[C@@H]2CC[C@H]2CN[C@@H]3CCCS(=O)(=O)N2C3)CCO1` (stereo partly drawn) [Example 232, glycyl-(βR)-4-chloro-β-(2,2-dimelhyltetrahydro-2H-pyran-4-yl)-N-[(1S,2R)-2-{2-[(6R,9S)-2,2-dioxido-2-thia-1,7-diazabicyclo[4.3.1]dec-9-yl]ethyl}cyclopentyl]-L-phenylalaninamide] has an EC50 of 2.5 µM.
Compound `COC(=O)N[C@H](C(=O)N[C@H]1CCCC[C@@H]1CC[C@H]1CN[C@@H]2CCCS(=O)(=O)N1C2)[C@@]1(c2ccc(Cl)cc2)C[C@@H](C)O[C@@H](C)C1` [Example 169, methyl [(1S)-1-[(2R,4r,6S)-4-(4-chlorophenyl)-2.6-dimethyltetrahydro-2H-pyran-4-yl]-2-{[(1S,2R)-2-{2-[(6R,9S)-2,2-dioxido-2-thia-1,7-diazabicyclo[4.3.1]dec-9-yl]ethyl}cyclohexyl]amino}-2-oxoethyl]carbamate] has an EC50 of 0.089 µM.
`COC(=O)N[C@H](C(=O)N[C@H]1CCC[C@@H]1CC[C@H]1CN[C@@H]2CCCS(=O)(=O)N1C2)[C@@H](c1ccccc1)c1ccc(OC)nc1` [Example 82, methyl {(1S)-2-{[(1S,2R)-2-{2-[(6R,9S)-2,2-dioxido-2-thia-1,7-diazabicyclo[4.3.1]dec-9-yl]ethyl}cyclopentyl]amino}-1-[(S)-(6-methoxypyridin-3-yl)(phenyl)methyl]-2-oxoethyl}carbamate] gave an EC50 of 0.16 µM.
`N[C@H](C(=O)N[C@H]1CCC[C@@H]1CC[C@H]1CN[C@@H]2CCCS(=O)(=O)N1C2)[C@@H](c1ccc(Cl)cc1)C1CCS(=O)(=O)CC1` [Example 157, (βR)-4-chloro-β-(1,1-dioxidotetrahydro-2H-thiopyran-4-yl)-N-[(1S,2R)-2-{2-[(6R,9S)-2,2-dioxido-2-thia-1,7-diazabicyclo[4.3.1]dec-9-yl]ethyl}cyclopentyl]-L-phenylalaninamide] was tested, and the EC50 was 3.4 µM.
